The test system of test [1] is Myceliopthora thermophila laccase (MtL). As to the kind of experiment: Laccase MtL treatment of tobacco extract, HPLC analysis of phenolic compounds (peak area). Type of test: biochemical. Conditions: for Remaining content (% remaining) (peak area relative to the content in the extract): before drying. As for the experimental part: (§1) The content of phenolic compounds is analysed by HPLC according to the procedure described below: • Liquid chromatographic system: E.g. Shimadzu SCL-6B System Controller, and two LC-6A Liquid Chromatograph (pumps) or Waters model 600 E • Injector: Shimadzu SIL 6B Autoinjector or Waters 715 Ultra Wisp. UV detector: Shimadzu SPD-6A Photodiode Array UV-VIS detector or Waters Model 481 • Software: CLASS LC10 / CLASS-MXA or Maxima 820 • Column: Supelcosil™ LC-18 25 cm x 4.6 mm (Supelco, #5-8298) or µ Bondapack C198 stainless steel column, 30 cm x 4 mm i.d., 10 µm particle size. • Guard column: none or Guard-Pak from Waters packed with the same material. • Temperature: Ambient • Mobile phase flow: 1.3 ml/min • Injection volume: 20µl • Wavelength: 350 nm • Eluent: Binary gradient (linear) mixture of A: KH2PO4 (28.4 g in 2000 ml de-mineralised water) and B: methanol (please see table 1 and figure 1). The eluent is filtered through a 0.45 µm filter and degassed before use.
(§2) Prior to HPLC analysis, the samples were filtered through a 0.45 µm filter or smaller, e.g. a sterile Sartorius Minisart 0.45 µm filter (#16555) or a Millipore Millex-GS 0.22 µm (#SBGS 0 25 SB) to remove the haze/precipitate normally formed during enzyme treatment. Normally, no dilution of the extract/sample was made before HPLC analysis.
For qualitative and semi-quantitative measurements, each of the standards was dissolved in 96% ethanol, and then mixed in a ratio and at a concentration which was within the range in the tobacco extract. For semi-quantification of the phenolic compounds in the tobacco extract, and as a measure of development in concentration of the various compounds contained in the extract, decrease in peak area relative to the peak area before addition of enzyme was used. As a measure of overall efficiency of the process, degree of reduction in total peak area of all peaks (not only the major ones) in the HPLC chromatogram with retention time Rt>3 min was used (named: "All peaks").
Unless otherwise indicated, the tobacco was extracted at a laboratory scale with water according to the following procedure: 1000 ml demineralised water is heated to 45°C. 30 g tobacco (approx. 25 g d.m.) is added and the mixture stirred by a magnetic bar and occasionally with a stick. After 15 minutes the tobacco residue is separated from the tobacco extract by vacuum filtration (Whatman glass micro fibre GF/F 11 cm). The filtered extract is then vacuum filtered at least once more or until it is completely clear. Yield was around 900 ml tobacco extract. […] No buffer was thus included in any of the trials. D.m. content of the extract was approximately 2.1%.
Tobacco extract (typically 50-100 ml) was poured into a glass beaker and a magnetic bar was added. No pH adjustments were made, and no buffer was added. The tobacco extract was heated to and controlled at 55°C during the entire enzyme treatment by means of a heating plate and a thermostat. Intensive submerse aeration was applied by blowing atmospheric air into the extract by means of a metal sinter (metal suction filter normally used for HPLC). The enzyme in question (TvL or PpL) was added to the desired concentration. Shortly after addition of laccase, the colour of the tobacco extract turned dark brown to black, and with time the liquor became turbid and a precipitate formed. The liquor was sampled with intervals for HPLC analysis.
It is obvious, that MtL can also be used to remove the phenolic compounds. It is evident, that using a dosage of MtL of approximately 0.63 µg/ml, longer processing time is needed compared to using a dosage of 6.3 µg/ml to obtain the same degree of reduction of the phenolic compounds, and that almost complete removal can be obtained with a dosage of approximately 0.63 µg/ml.
Enzyme treatment: MtL enzyme was added at various concentrations in the range 2.5 µg/ml - 6.3 µg/ml. A fixed processing time of 20 minutes was used. […]

The test system is the same in test [2]. Description: MtL treatment of tobacco extract, quantitative HPLC of chlorogenic acid, rutin and scopoletin. The format is biochemical. The settings on record: detection limit CA 2.43, R 1.55, S 0.50 µg/ml. How it is done: as §1, §2
For quantitative measurements the following standards were made in the extracting solution: Chlorogenic acid: 20 mg/ml; Scopoletin: 1 mg/ml; Rutin: 0.75 mg/ml.
The mixture was intensely aerated during the reaction time.
"Raw tobacco" was extracted according to the procedure described in Example 8. […] After enzyme treatment, bentonite was added at a concentration of 1 g/L at the temperature of the extract after the laccase treatment (50°C) for 10 minutes. The slurry was clarified at a flow rate of 1 L/min using a continuous centrifuge. The enzyme treated and clarified extract was then concentrated 40 fold by means of reverse osmosis and evaporation. The concentrate was then recombined with the "tobacco residue" by spraying back the extract onto the tobacco residue, and finally dried, resulting in "recombined tobacco material".
Samples of tobacco before and after extraction and recombination with the tobacco extract was analysed for nicotine, reducing sugars, total sugars by means of an Auto Analyzer according to the method previously described, and analysed for chlorogenic acid, rutin, and scopoletin by means of HPLC according the method previously described. The tobacco extract before and after MtL and bentonite treatment was analysed for chlorogenic acid, rutin, and scopoletin by means of HPLC according the method previously described.

Where [3] appears, read: 5 min, 52.0 °C, 4.1 µg/ml MtL, 3.0 kg/100 litre scale.
[4] abbreviates: 5 minutes, 56.2 °C, MtL, 6.0 kg/200 litre scale.
Where [5] appears, read: 10 min, 50.3 °C, 4.1 µg/ml MtL, 3.0 kg/100 litre scale.
The mark [6] stands for this setting: 10 minutes, 55.8 °C, MtL, 6.0 kg/200 litre scale.
Where [7] appears, read: 15 min, 48.8 °C, 4.1 µg/ml MtL, 3.0 kg/100 litre scale.
[8] abbreviates: 15 minutes, 55.2 °C, MtL, 6.0 kg/200 litre scale.
[9] abbreviates: 20 min, 47.4 °C, 4.1 µg/ml MtL, 3.0 kg/100 litre scale.
Setting [10] is: 20 minutes, 54.5 °C, MtL, 6.0 kg/200 litre scale.
Setting [11] is: 30 min, 45.0 °C, 4.1 µg/ml MtL, 3.0 kg/100 litre scale.
The mark [12] stands for this setting: 30 minutes, 53.5 °C, MtL, 6.0 kg/200 litre scale.
Where [13] appears, read: 45 min, 41.9 °C, 4.1 µg/ml MtL, 3.0 kg/100 litre scale.
Setting [14] is: 45 minutes, 52.2 °C, MtL, 6.0 kg/200 litre scale.
Where [15] appears, read: 60 min, 39.1 °C, 4.1 µg/ml MtL, 3.0 kg/100 litre scale.
Setting [16] is: 60 minutes, 51.0 °C, MtL, 6.0 kg/200 litre scale.
Setting [17] is: Extract after MtL treatment, 4.1 µg/ml MtL, 20 minutes at 55°C, intense aeration.
Setting [18] is: Extract after MtL- and bentonite treatment and separation by centrifugation, 4.1 µg/ml MtL 20 minutes at 55°C, bentonite 1 g/L 10 minutes at 50°C.

We go through 2 compounds from EP1094724B1, “USE OF A PHENOL OXIDISING ENZYME IN THE TREATMENT OF TOBACCO” (priority 1998, dated 2000).

`COc1cc2ccc(=O)oc2cc1O` [S, 7-Hydroxy-6-methoxy-2H-1-benzopyran-2-one]: the “Residual amount (% remaining) (peak area)” value was 100% in test [1] (0 % pO2, 3.8 µg/ml MtL for 20 minutes at pH 5.4 and 55°C); 97% in test [1] (2.5 µg MtL /ml, 20 minutes at pH 5.4 and 55°C, intensive submerse aeration); 69% in test [1] (3.8 µg MtL /ml, 20 minutes at pH 5.4 and 55°C, intensive submerse aeration); 52% in test [1] (6.3 µg MtL /ml, 20 minutes at pH 5.4 and 55°C, intensive submerse aeration); 75% in test [1] (30 % pO2, 3.8 µg/ml MtL for 20 minutes at pH 5.4 and 55°C); 59% in test [1] (50 % pO2, 3.8 µg/ml MtL for 20 minutes at pH 5.4 and 55°C). For the same compound, the “Residual amount (% remaining) (peak area)” value in test [1] (90 % pO2, 3.8 µg/ml MtL for 20 minutes at pH 5.4 and 55°C) was determined as 45%. Also, the “% Remaining (peak area) after various treatment times” value is on record as 78% in test [1] (10 min, approx. 6.3 µg/ml MtL at pH 5.4 and 55°C, intensive submerse aeration); 52% in test [1] (20 min, approx. 6.3 µg/ml MtL at pH 5.4 and 55°C, intensive submerse aeration); 90% in test [1] (67 min, approx. 0.63 µg/ml MtL at pH 5.4 and 55°C, intensive submerse aeration); 76% in test [1] (150 min, approx. 0.63 µg/ml MtL at pH 5.4 and 55°C, intensive submerse aeration). In addition, the “Remaining content (% remaining) (peak area relative to the content in the extract)” value is 47% in test [1] (Sample 4 enzyme treated extract after separation from precipitate, approximately 7.5 µg/ml MtL, 30 minutes, 53-56°C, pH 5.5); 44% in test [1] (Sample 6 enzyme and bentonite treated extract separated from precipitate and bentonite, approximately 7.5 µg/ml MtL 30 minutes, then bentonite 15 minutes at 50-55°C). Besides, the “Content in tobacco extract during MtL treatment” value was determined as 0.0063 mg/mL in test [2] (setting [3]); 0.0101 mg/mL in test [2] (setting [4]); 0.0027 mg/mL in test [2] (setting [5]); 0.0090 mg/mL in test [2] (setting [6]); 0.0014 mg/mL in test [2] (setting [7]); 0.0078 mg/mL in test [2] (setting [8]). The “Content in tobacco extract during MtL treatment” value in test [2] (setting [9]) is 0.0010 mg/mL; in test [2] (setting [10]) it was 0.0054 mg/mL; in test [2] (setting [11]) it was 0.0010 mg/mL; in test [2] (setting [12]), 0.0043 mg/mL; in test [2] (setting [13]) it was 0.0010 mg/mL; in test [2] (setting [14]), 0.0020 mg/mL. Besides, the “Content in tobacco extract during MtL treatment” value turned out to be 0.0010 mg/mL in test [2] (setting [15]) and 0.0019 mg/mL in test [2] (setting [16]). Also, the “phenolic compound content of tobacco extract” value is 0.0047 mg/mL in test [2] (setting [17]) and 0.0017 mg/mL in test [2] (setting [18]).

Regarding `O=C(C=Cc1ccc(O)c(O)c1)OC1CC(O)(C(=O)O)CC(O)C1O` (stereo not drawn) [CA, 3-[[3-(3,4-Dihydroxyphenyl)-1-oxo-2-propenyl]oxy]1,4,5-trihydroxycyclohexanecarboxylic acid], the “Content in tobacco extract during MtL treatment” value was 0.036 mg/mL in test [2] (setting [3]); 0.0166 mg/mL in test [2] (setting [4]); “BDL” in test [2] (setting [5]); 0.0138 mg/mL in test [2] (setting [6]); “BDL” in test [2] (setting [7]); “BDL” in test [2] (setting [8]). In addition, the “Content in tobacco extract during MtL treatment” value in test [2] (setting [9]), in test [2] (setting [10]), in test [2] (setting [11]), in test [2] (setting [12]), in test [2] (setting [13]) and in test [2] (setting [14]) was “BDL” each time. The “Content in tobacco extract during MtL treatment” value in test [2] (setting [15]) and in test [2] (setting [16]) was “BDL” throughout. Besides, the “phenolic compound content of tobacco extract” value in test [2] (setting [17]) and in test [2] (setting [18]) was “BDL” each time.
